Data on 102 molecules can be found in PubChem BioAssay AID488890 (Southern Research Specialized Biocontainment Screening …, 2010).

Records with an inconclusive call do not appear. The source made the active and inactive calls. How the calls were made is not given here.

The subject of this assay is Mycobacterium tuberculosis non-replicating, growth inhibition. The assay is described as follows: growth inhibition of non-replicating M. tuberculosis (AID 488890).
Take `CCOC(=O)C(C)(C)n1nnc(-c2ccc([N+](=O)[O-])cc2)n1`: the IC50 was 14.3 µM (inactive).
With `CN1C(=O)/C(=C/c2cccc(Cl)c2)Sc2ccc(C(=O)N3CCCC3)cc21`, the IC50 is 22 µM (inactive).
In the case of `COc1ccc2cc(C(=O)NCc3ccccc3CN3CCCC3)ccc2c1` it was 17.7 µM (inactive).
In the case of `Cc1n[nH]c(=S)n1/N=C/c1ccc(OCc2ccc(Cl)cc2Cl)cc1` it was 37.5 µM (inactive); in that of `O=[N+]([O-])c1ccc(N2CCCCCC2)c2nonc12`, 21.7 µM (inactive); in that of `CCc1c(C)c2ccc(OCC(=O)OC)cc2oc1=O`, 9.03 µM.
In the case of `COC(=O)c1ccc2c(c1O)C(=O)c1ccccc1C2=O` it was 1.44 µM; in that of `O=c1[nH]c(-c2ccccn2)nc2ccccc12`, 9.66 µM.
Regarding `Sc1oc(-c2ccccc2)cc1C=Nc1ccccc1`, the IC50 was 26 µM (inactive).
For `O=C(c1ccc(Br)o1)N1CCC(Cc2ccccc2)CC1` the value was 3.77 µM; for `O=C(c1cc2ccccc2o1)N1CCN(Cc2ccccc2)CC1`, 7.64 µM; for `O=C(Nc1cccc([N+](=O)[O-])c1)C1COc2ccccc2O1` (configuration not stated), 21 µM (inactive).
In the case of `COc1cc(N=c2ssnc2Cl)cc(OC)c1` it was 19.3 µM (inactive); in that of `Clc1cccc(OCCN2CCN(CCOc3cccc(Cl)c3)CC2)c1`, 21.7 µM (inactive); in that of `Cc1ccnc(NC(=O)CCc2c[nH]c3ccccc23)c1`, 5.51 µM.
Consider `O=C(N/N=C/c1ccc(Br)s1)c1cccnc1`, for which the IC50 was 9.43 µM.
As for `On1onc2c3cc(-c4ccccc4)nc3ccc21`, the IC50 was 0.31 µM.
As for `COC(=O)c1sc(NC(=O)c2ccc([N+](=O)[O-])o2)c(C#N)c1C`, the IC50 is 4.3 µM.
In the case of `Cc1ccc(C(=O)CCNc2ccc(Br)cc2)o1` it was 1.84 µM; in that of `CCOC(=O)COc1ccc2ccccc2c1/C=C/[N+](=O)[O-]`, 2.32 µM; in that of `COc1ccc(/C=C/c2nc3ccccc3c(=O)o2)cc1`, 2.74 µM.
For the molecule `CCOC(=O)CCNC(=O)c1ccc2nc(C3CCCCC3)oc2c1`, the IC50 was 28.8 µM (inactive).
With `CCCCOc1ccc(-c2nnn(C(C)C(=O)OCC)n2)cc1` (configuration not stated), the 50% inhibitory concentration (IC50) is 1.57 µM.
In the case of `O=C(Nc1ccc(Br)cc1)c1cc([N+](=O)[O-])cc([N+](=O)[O-])c1` it was 2.63 µM; in that of `Cc1cc(C)c(C(=O)COC(=O)c2ccc([N+](=O)[O-])o2)cc1C`, 0.93 µM; in that of `COC(=O)CN(C#N)c1nc(SC)nc(N(C)C)n1`, 15.9 µM (inactive).
For `Clc1ccc(SCCCCN2CCNCC2)cc1` the value was 39.3 µM (inactive); for `O=C(NNc1ccc([N+](=O)[O-])cc1)C1CC1c1ccccc1` (configuration not stated), 8.96 µM.
In the case of `CC1=Nc2ccccc2/C1=C/c1sc(=N)n(-c2nccs2)c1O` it was 1.51 µM; in that of `Nc1ccccc1C#CC(=O)c1ccccc1`, less than 0.1 µM.
For `O=C(N/N=C/c1ccccn1)c1cccc(S(=O)(=O)Nc2ccccc2Cl)c1`, the IC50 is 15.1 µM (inactive).
For `Cc1ccc(NC(=O)CCSc2nnc(-c3ccco3)o2)cc1` the value was 8.38 µM; for `COCCn1c(C)cc(C(=O)COC(=O)c2ccc([N+](=O)[O-])o2)c1C`, 2.79 µM; for `CCc1nnc(NC(=O)c2cc3ccccc3oc2=O)s1`, 2.75 µM.
For `COc1ccc(CN2C(=O)/C(=C/c3ccncc3)SC2=S)cc1` the value was 39.3 µM (inactive); for `COc1ccccc1NC(=O)C(=O)/C=C(\O)c1ccccc1`, 15.4 µM (inactive).
With `COc1ccc2cc(C(=O)NCc3ccccc3)c(=O)oc2c1`, the IC50 is 39.3 µM (inactive).
With `CCOC(=O)COc1ccc2c(=O)c(-c3ccccc3)coc2c1`, the IC50 is less than 0.1 µM.
For the molecule `COc1ccccc1C(=O)OCC(=O)Nc1ccc(Cl)cn1`, the IC50 was 16.2 µM (inactive).
For `CCC(C)n1nnc2c(=O)oc3ccccc3c21` (configuration not stated) the value was 5.63 µM; for `Cc1ccc(C)c(-c2nnc(NC(=O)C3=COCCO3)o2)c1`, 23.1 µM (inactive).
Consider `COc1ccc([N+](=O)[O-])c(S(=O)(=O)c2ccc(Cl)cc2)n1`, for which the IC50 was 1 µM.
As for `CCCCOC(=O)C1CCCC(C(=O)OCCCC)N1` (configuration not stated), the IC50 was 4.91 µM.
For `Cc1ccc(-c2nnc(-c3cccs3)o2)cc1` the value was 2 µM; for `CC(C)(C)c1csc(NC(=O)c2ccccc2O)n1`, 19.6 µM (inactive); for `Cc1cccc(CSc2nnc(-c3ccco3)o2)c1`, 0.67 µM.
As to `Clc1ccc(N=c2ssnc2Cl)nc1`, the IC50 is 3.45 µM.
`COc1ccc(C2(O)CCN(CCCCOc3ccccc3)CC2)cc1`: the IC50 was 18.1 µM (inactive).
For `CN1CCN(/N=C/c2ccc(-c3ccc([N+](=O)[O-])cc3Cl)o2)CC1`, the IC50 was 26.9 µM (inactive).
For `CC(C)(O)C#Cc1ccc(C(=O)Nc2ccc3c(c2)OCO3)s1` the value was 5.97 µM; for `CCOc1ccc(NC(=O)CCC(=O)N/N=C/c2ccc([N+](=O)[O-])s2)cc1`, 8.29 µM.
In the case of `CC1CCC/C(=C\Nc2ccc(C(=O)O)c(O)c2)C1=O` (configuration not stated) it was less than 0.1 µM; in that of `CCCc1ccc(OCc2ccc(C(=O)N/N=C/c3cccnc3)o2)cc1`, 8.42 µM; in that of `O=C(O)c1ccccc1C(=O)NNc1ccc(Cl)cc1`, 4.09 µM.
As for `O=C(NNC(=O)C12CC3CC(CC(C3)C1)C2)c1cnccn1`, the IC50 is 32.2 µM (inactive).
In the case of `O=C(N/N=C\c1ccc([N+](=O)[O-])o1)c1cncc(Br)c1` it was 8.55 µM; in that of `CC1CCN(C(=O)C2COc3ccccc3O2)CC1` (configuration not stated), 0.23 µM; in that of `COC12C(COC(N)=O)C3=C(C(=O)C(C)=C(N)C3=O)N1CC1C2N1C` (configuration not stated), 0.12 µM.
For `Cc1cc(NCc2ccccn2)n2nc(C)c(-c3ccccc3)c2n1` the value was 1.82 µM; for `O=[N+]([O-])c1ccc(CSc2nnc(-c3cccnc3)o2)cc1`, 0.81 µM; for `O=C(OCC#CCSc1nc2ccccc2o1)c1ccco1`, 5.75 µM.
In the case of `COc1ccccc1-c1nnc(NC(=O)c2ccc3ncsc3c2)o1` it was 22.5 µM (inactive); in that of `O=C(CCc1ccccc1)NC1C2CC3CC(C2)CC1C3` (configuration not stated), 4.71 µM.
With `C/C(=N\NC(=O)C(C)Oc1ccc([N+](=O)[O-])cc1)c1ccccn1` (configuration not stated), the IC50 is 9.84 µM.
In the case of `CCCCCCCC(=O)N/N=C(\C)c1ccc(O)cc1O` it was 1.57 µM.
For `O=C(OCc1c(Cl)cccc1Cl)c1ccccn1` the value was 6.6 µM; for `Cc1ccc(CNCc2cc(Cl)ccc2O)cc1`, 12.8 µM (inactive).
In the case of `CCn1cc(C(=O)O)c(=O)c2cc(F)c(N3CCN(C(=S)NC(=O)c4ccccc4)CC3)cc21` it was 16.8 µM (inactive).
With `CC(C)(C)c1ccc2c(c1)OC(C(=O)N/N=C\c1ccccn1)CO2` (configuration not stated), the IC50 is 4.8 µM.
In the case of `CCOC(=O)C1CCN(CCCSc2ccc(Cl)cc2)CC1` it was 46.4 µM (inactive); in that of `CSCCC(=O)N1CCCC(N2CCN(c3cccc(C(F)(F)F)c3)CC2)C1` (configuration not stated), 34.4 µM (inactive); in that of `CCOc1cc(-c2nnc(NC(=O)c3ccco3)o2)cc(OCC)c1OCC`, 21.6 µM (inactive).
For `CCOC(=O)COc1c(-c2ccc(OC)cc2)oc2ccccc2c1=O` the value was 4.43 µM; for `Nc1ccc(Br)c2cccnc12`, 15.8 µM (inactive).
For `O=C(Cc1ccccc1)Nc1ccc(C(=O)NCC2COc3ccccc3O2)cc1` (configuration not stated) the value was 28.3 µM (inactive); for `CCC1CCc2sc(C(=O)NNC(=O)c3ccncc3)cc2C1` (configuration not stated), 1.97 µM.
`CC(=O)c1cccc(NC(=O)C2COc3ccccc3O2)c1` (configuration not stated): the IC50 was 24 µM (inactive).
In the case of `COC(=O)C1=C(C)N(CC2CC2)C(=NCc2cccc(Cl)c2)N[C@H]1c1ccccc1`, the IC50 is 10.5 µM (inactive).
In the case of `CCOc1cccc(/C=N/NC(=O)c2ccc3c(c2)OCCO3)c1O` it was 1.12 µM; in that of `CC(NC(=O)c1cc2cc(Br)ccc2oc1=N)c1ccccc1` (configuration not stated), 6.97 µM; in that of `O=C(CCSc1ccccn1)c1ccccc1`, 9.72 µM.
In the case of `Cc1c(CN(C)C)c2c(n1Cc1ccccc1)C(=O)c1ccc(Br)cc1-2` it was 16 µM (inactive).
In the case of `CCCCn1c(O)c(/C=C2/C=CC=N2)c(=O)[nH]c1=O` it was 1.17 µM.
For the molecule `Oc1ccc(Cl)cc1CNCc1ccc(F)cc1`, the IC50 was 11.1 µM (inactive).
In the case of `O=C(OCC(=O)N1CCN(c2ccccc2)CC1)c1ccc(Cl)cc1[N+](=O)[O-]` it was 14.4 µM (inactive); in that of `N#Cc1ccc(COC(=O)CCc2c[nH]c3ccccc23)cc1`, 4.68 µM.
In the case of `CCCn1nnc(NC(=O)COc2ccc(CC)cc2)n1` it was 17.9 µM (inactive).
Turning to `Oc1ccccc1/C=N/Nc1nc2ccccc2o1`, the IC50 is 0.19 µM.
For the molecule `CC1CCN(C(=O)COC(=O)CCc2c[nH]c3ccccc23)CC1`, the IC50 is 12.8 µM (inactive).
On to `COC(=O)COc1ccc2c(=O)c(-c3ccccc3)coc2c1`, for which the IC50 is less than 0.1 µM.
In the case of `COC(=O)COc1ccc2c(-c3ccc(OC)cc3)cc(=O)oc2c1` it was 0.78 µM; in that of `COc1cccc(-c2nnc(NC(=O)c3ccc(S(=O)(=O)N(CC(C)C)CC(C)C)cc3)o2)c1`, 13.7 µM (inactive); in that of `O=C(CCN1C(=O)/C(=C/c2ccccc2Cl)SC1=S)N1CCCC1`, 7.03 µM.
In the case of `COc1ccc(C(=O)NNC2=C(C(=O)C(F)(F)F)CCC2)cc1` it was 1.9 µM.
Consider `Oc1c(Cl)cc(CN2CCOCC2)c2cccnc12`, for which the IC50 is 2.53 µM.
For the molecule `N#Cc1ccsc1NC(=O)c1ccc(Cl)c([N+](=O)[O-])c1`, the IC50 was 4.4 µM.
For `O=C(COc1ccccc1)Nc1ccc(F)cc1` the value was 8.5 µM.
As for `Cc1c(-c2ccc(Br)cc2)nc2ccccn12`, the IC50 is 18.9 µM (inactive).
For `O=c1[nH]c(O)c(/C=C2/C=CC(c3cc(Cl)ccc3Cl)=N2)c(=O)[nH]1` the value was 0.34 µM; for `Oc1ccc(Cl)cc1C1=NNC(c2cccs2)C1` (configuration not stated), 3.85 µM; for `Cc1cc(OCC(=O)Nc2ccncc2)ccc1Br`, 3.47 µM.
`O=C(OCC(=O)N1CCC(c2ccccc2)=N1)c1ccc([N+](=O)[O-])s1`: the IC50 was 0.61 µM.

By IC50 is commonly meant the concentration needed to halve the response being measured.
